Experimental data from ChEMBL document CHEMBL1667788, “Novel dammarane-type sapogenins from Panax ginseng berry and their biological activities” (Bioorg Med Chem Lett, 2011).

Legend:
Format in all cases: functional, cell-based
[1] = tested on: HepG2; assay: Cytotoxicity against human HepG2 cells after 72 hrs by MTT assay; settings: HepG2, 72 h
[2] = tested on: MCF7; assay: Cytotoxicity against human MCF7 cells after 72 hrs by MTT assay; settings: MCF7, 72 h
[3] = tested on: HL-60; assay: Cytotoxicity against human HL60 cells after 72 hrs by MTT assay; settings: HL-60, 72 h
[4] = tested on: COLO 205; assay: Cytotoxicity against human COLO205 cells after 72 hrs by MTT assay; settings: COLO 205, 72 h
[5] = tested on: A549; assay: Cytotoxicity against human A549 cells after 72 hrs by MTT assay; settings: A549, 72 h
[6] = tested on: DU-145; assay: Cytotoxicity against human DU145 cells after 72 hrs by MTT assay; settings: DU-145, 72 h

Compound | IC50 [1] [µM] | IC50 [2] [µM] | IC50 [3] [µM] | IC50 [4] [µM] | IC50 [5] [µM] | IC50 [6] [µM]
CC(C)[C@]12CC[C@](C)(O1)[C@H]1CC[C@]3(C)[C@@H]1[C@@H](C[C@@H]1[C@@]4(C)CC[C@H](O)C(C)(C)[C@@H]4CC[C@]13C)O2 | 64.1 | 49 | 42.4 | 70.7 | – | –
CC(C)(O)CCC[C@@](C)(O)[C@H]1CC[C@]2(C)[C@@H]1[C@H](O)C[C@@H]1[C@@]3(C)CC[C@H](O)C(C)(C)[C@@H]3CC[C@]12C | 45.8 | 34.2 | 8.03 | 18.9 | 29.9 | –
COC(C)(C)CCC[C@@](C)(O)[C@H]1CC[C@]2(C)[C@@H]1[C@H](O)C[C@@H]1[C@@]3(C)CC[C@H](O)C(C)(C)[C@@H]3CC[C@]12C | 8.32 | 8.34 | 8.48 | 14.2 | 35.6 | 11.8
CC(C)=CCCC(C)(O)[C@H]1CC[C@]2(C)[C@@H]1[C@H](O)C[C@@H]1[C@@]3(C)CC[C@H](O)C(C)(C)[C@@H]3CC[C@]12C (single isomer, unassigned) | 39.4 | 6.62 | 27.1 | 49.2 | 99.9 | 60.4
